Test results as given in patent publication US4921850A, “3-propenylcephem derivative” (Eisai Co., Ltd., priority 1986, dated 1990).
Converted amounts (≈) assume the structure as drawn. Like-named read-outs stand apart in the source and are kept apart here.

Experiments:
Experiment in all cases: Anti-bacterial activity (MIC), agar dilution
Format in all cases: cell-based
Ser. marcescens ES-75 = settings: Ser. marcescens ES-75, agar dilution, about 10^6 CFU/ml, 18 hours, 37° C.
Protocol: (§1) MIC (μg/ml) were determined by an agar dilution method [Chemotherapy (Japan), 29, 76-79, 1981]. Overnight cultures of the bacterial strains in Mueller-Hinton broth were diluted to final concentration of about 10^6 CFU/ml, and 5 μl of each bacterial suspension was spotted onto Mueller-Hinton agar plates that contained twofold serial dilutions of antibiotics. MICs were measured after incubation for 18 hours at 37° C.

[1] = test system: Morganella morganii EP-14; settings: about 10^6 CFU/ml, 37° C.
Protocol: as §1

Staph. aureus 209-P = settings: Staph. aureus 209-P, agar dilution, about 10^6 CFU/ml, 18 hours, 37° C.
Protocol: as §1

Kleb. pneumoniae EK-6 = settings: Kleb. pneumoniae EK-6, agar dilution, about 10^6 CFU/ml, 18 hours, 37° C.
Protocol: as §1

Pseud. aeruginosa EP-01 = settings: Pseud. aeruginosa EP-01, agar dilution, about 10^6 CFU/ml, 18 hours, 37° C.
Protocol: as §1

Escher. coli NIHJ = settings: Escher. coli NIHJ, agar dilution, about 10^6 CFU/ml, 18 hours, 37° C.
Protocol: as §1

[2] = Serratia marcescens, ES75, 18 h, read-out: MIC
[3] = Morganella morganii, EP14, 18 h, read-out: MIC
[4] = Staphylococcus aureus, 209P, 18 h, read-out: MIC
[5] = Klebsiella pneumoniae, EK6, 18 h, read-out: MIC
[6] = Pseudomonas aeruginosa, EP01, 18 h, read-out: MIC
[7] = Escherichia coli, 18 h, read-out: MIC

SMILES | MIC (Ser. marcescens ES-75; [2]) | MIC [1, 3] | MIC (Staph. aureus 209-P; [4]) | MIC (Kleb. pneumoniae EK-6; [5]) | MIC (Pseud. aeruginosa EP-01; [6]) | MIC (Escher. coli NIHJ; [7]) | MIC (Ser. marcescens ES-75) | MIC ([1]; 18 hours) | MIC (Staph. aureus 209-P) | MIC (Kleb. pneumoniae EK-6) | MIC (Pseud. aeruginosa EP-01) | MIC (Escher. coli NIHJ)
NC(=O)C[N+]1(C/C=C/C2=C(C(=O)[O-])N3C(=O)[C@@H](NC(=O)/C(=N\OCF)c4nsc(N)n4)[C@H]3SC2)CCOCC1 [Example 35] | 0.1 µg/mL (≈ 0.171 µM) | 0.05 µg/mL (≈ 0.0855 µM) | 0.4 µg/mL (≈ 0.684 µM) | ≤ 0.025 µg/mL | 0.8 µg/mL (≈ 1.37 µM) | 0.05 µg/mL (≈ 0.0855 µM) |  |  |  |  |  | 
C[C@@H](O)[C@@H](C(N)=O)[N+](C)(C)C/C=C/C1=C(C(=O)[O-])N2C(=O)[C@@H](NC(=O)/C(=N\OCC#N)c3nsc(N)n3)[C@H]2SC1 [Example 153] | 0.1 µg/mL (≈ 0.168 µM) | 0.1 µg/mL (≈ 0.168 µM) | 0.4 µg/mL (≈ 0.674 µM) | 0.1 µg/mL (≈ 0.168 µM) | 1.56 µg/mL (≈ 2.63 µM) | 0.2 µg/mL (≈ 0.337 µM) |  |  |  |  |  | 
Nc1nc(/C(=N/OCF)C(=O)N[C@@H]2C(=O)N3C(C(=O)[O-])=C(/C=C/C[N+]4(CCO)CCN(CCO)CC4)CS[C@H]23)ns1 [Example 27] | 0.1 µg/mL (≈ 0.163 µM) | 0.05 µg/mL (≈ 0.0813 µM) | 0.4 µg/mL (≈ 0.651 µM) | ≤ 0.025 µg/mL | 1.56 µg/mL (≈ 2.54 µM) | 0.05 µg/mL (≈ 0.0813 µM) |  |  |  |  |  | 
Nc1nc(/C(=N/OCF)C(=O)N[C@@H]2C(=O)N3C(C(=O)[O-])=C(/C=C/C[N+](CCO)(CCO)CCO)CS[C@H]23)ns1 [Example 143, 7β-[2-(5-Amino-1,2,4-thiadiazol-3-yl)-(Z)-2 fluoromethoxyiminoacetamido]-3-[(E)-3-[tris(2-hydroxyethyl)ammonio]-1-propen-1-yl]-3-cephem-4-carboxylate] | 0.1 µg/mL (≈ 0.17 µM) | ≤ 0.025 µg/mL | 0.2 µg/mL (≈ 0.339 µM) | ≤ 0.025 µg/mL | 0.8 µg/mL (≈ 1.36 µM) | 0.05 µg/mL (≈ 0.0848 µM) |  |  |  |  |  | 
Nc1nc(/C(=N/OCF)C(=O)N[C@@H]2C(=O)N3C(C(=O)[O-])=C(/C=C/C[n+]4ccc(C(=O)N5CCOCC5)cc4)CS[C@H]23)ns1 [Example 108] | 0.1 µg/mL (≈ 0.158 µM) | 0.05 µg/mL (≈ 0.079 µM) | 0.4 µg/mL (≈ 0.632 µM) | ≤ 0.025 µg/mL | 3.13 µg/mL (≈ 4.95 µM) | 0.05 µg/mL (≈ 0.079 µM) |  |  |  |  |  | 
CC(O)C[N+](C)(C)CC=CC1=C(C(=O)[O-])N2C(=O)C(NC(=O)C(=NOCF)c3nsc(N)n3)C2SC1 (centres unmarked) [Example 65] | 0.05 µg/mL (≈ 0.092 µM) | ≤ 0.025 µg/mL | 0.4 µg/mL (≈ 0.736 µM) | ≤ 0.025 µg/mL | 0.8 µg/mL (≈ 1.47 µM) | ≤ 0.025 µg/mL |  |  |  |  |  | 
Nc1nc(/C(=N/OCF)C(=O)N[C@@H]2C(=O)N3C(C(=O)[O-])=C(/C=C/C[N+](N)(CCO)CCO)CS[C@H]23)ns1 [Example 107] | 0.05 µg/mL (≈ 0.0892 µM) | ≤ 0.025 µg/mL | 0.2 µg/mL (≈ 0.357 µM) | ≤ 0.025 µg/mL | 1.56 µg/mL (≈ 2.78 µM) | 0.05 µg/mL (≈ 0.0892 µM) |  |  |  |  |  | 
C[N+](C)(C/C=C/C1=C(C(=O)[O-])N2C(=O)[C@@H](NC(=O)/C(=N\OCF)c3nsc(N)n3)[C@H]2SC1)CC(N)=O [Example 118, 7β-[2-(5-Amino-1,2,4-thiadiazol-3-yl)-(Z)-2-fluoromethoxyiminoacetamido]-3-[(E)-3-(carbamoylmethyldimethylammonio)-1-propen-1-yl]-3-cephem-4-carboxylate] | 0.1 µg/mL (≈ 0.184 µM) | ≤ 0.025 µg/mL | 0.2 µg/mL (≈ 0.369 µM) | ≤ 0.025 µg/mL | 0.4 µg/mL (≈ 0.737 µM) | ≤ 0.025 µg/mL |  |  |  |  |  | 
CC(=N)N1CC[N+](C)(C/C=C/C2=C(C(=O)[O-])N3C(=O)[C@@H](NC(=O)/C(=N\OCF)c4nsc(N)n4)[C@H]3SC2)CC1 [Example 26] | 0.4 µg/mL (≈ 0.688 µM) | 0.1 µg/mL (≈ 0.172 µM) | 0.2 µg/mL (≈ 0.344 µM) | 0.1 µg/mL (≈ 0.172 µM) | 0.8 µg/mL (≈ 1.38 µM) | 0.1 µg/mL (≈ 0.172 µM) |  |  |  |  |  | 
CNC(=O)C[N+](C)(C)C/C=C/C1=C(C(=O)[O-])N2C(=O)[C@@H](NC(=O)/C(=N\OCF)c3nsc(N)n3)[C@H]2SC1 [Example 55] | ≤ 0.025 µg/mL | ≤ 0.025 µg/mL | 0.2 µg/mL (≈ 0.359 µM) | ≤ 0.025 µg/mL | 0.4 µg/mL (≈ 0.719 µM) | ≤ 0.025 µg/mL |  |  |  |  |  | 
C[N+](C)(C/C=C/C1=C(C(=O)[O-])N2C(=O)[C@@H](NC(=O)/C(=N\OCF)c3nsc(N)n3)[C@H]2SC1)CC(O)CO (some centres unmarked) [Example 88] | ≤ 0.025 µg/mL | ≤ 0.025 µg/mL | 0.2 µg/mL (≈ 0.357 µM) | ≤ 0.025 µg/mL | 0.8 µg/mL (≈ 1.43 µM) | ≤ 0.025 µg/mL |  |  |  |  |  | 
NC(=O)N1CC[N+](C/C=C/C2=C(C(=O)[O-])N3C(=O)[C@@H](NC(=O)/C(=N\OCF)c4nsc(N)n4)[C@H]3SC2)(CCO)CC1 [Example 28] | 0.2 µg/mL (≈ 0.326 µM) | 0.05 µg/mL (≈ 0.0815 µM) | 0.4 µg/mL (≈ 0.652 µM) | 0.05 µg/mL (≈ 0.0815 µM) | 1.56 µg/mL (≈ 2.54 µM) | 0.05 µg/mL (≈ 0.0815 µM) |  |  |  |  |  | 
NC(=O)NCC[N+]1(C/C=C/C2=C(C(=O)[O-])N3C(=O)[C@@H](NC(=O)/C(=N\OCF)c4nsc(N)n4)[C@H]3SC2)CCN(C(N)=O)CC1 [Example 32] | 0.05 µg/mL (≈ 0.0763 µM) | ≤ 0.025 µg/mL | 0.2 µg/mL (≈ 0.305 µM) | ≤ 0.025 µg/mL | 1.56 µg/mL (≈ 2.38 µM) | ≤ 0.025 µg/mL |  |  |  |  |  | 
C[N+](C)(C/C=C/C1=C(C(=O)[O-])N2C(=O)[C@@H](NC(=O)/C(=N\OCF)c3nsc(N)n3)[C@H]2SC1)C(CO)(CO)CO [Example 70] | 0.1 µg/mL (≈ 0.17 µM) | ≤ 0.025 µg/mL | 0.1 µg/mL (≈ 0.17 µM) | ≤ 0.025 µg/mL | 0.8 µg/mL (≈ 1.36 µM) | ≤ 0.025 µg/mL |  |  |  |  |  | 
Nc1nc(/C(=N/OCF)C(=O)N[C@@H]2C(=O)N3C(C(=O)[O-])=C(/C=C/C[N+]4(CC(O)CO)CCCC4)CS[C@H]23)ns1 (single isomer, unassigned) [Example 23-2] |  |  |  |  |  |  | ≤ 0.025 µg/mL | 0.05 µg/mL (≈ 0.0854 µM) | 0.2 µg/mL (≈ 0.342 µM) | ≤ 0.025 µg/mL | 1.56 µg/mL (≈ 2.66 µM) | 0.05 µg/mL (≈ 0.0854 µM)
C[N+](C)(C/C=C/C1=C(C(=O)[O-])N2C(=O)[C@@H](NC(=O)/C(=N\OCC#N)c3nsc(N)n3)[C@H]2SC1)Cc1nnco1 [Example 159] | 0.1 µg/mL (≈ 0.174 µM) | 0.1 µg/mL (≈ 0.174 µM) | 0.4 µg/mL (≈ 0.696 µM) | 0.05 µg/mL (≈ 0.087 µM) | 1.56 µg/mL (≈ 2.71 µM) | 0.05 µg/mL (≈ 0.087 µM) |  |  |  |  |  | 
C[N+](C)(C/C=C/C1=C(C(=O)[O-])N2C(=O)[C@@H](NC(=O)/C(=N\OCF)c3nsc(N)n3)[C@H]2SC1)Cc1cnc[nH]1 [Example 106] | 0.1 µg/mL (≈ 0.177 µM) | 0.05 µg/mL (≈ 0.0884 µM) | 0.4 µg/mL (≈ 0.707 µM) | 0.05 µg/mL (≈ 0.0884 µM) | 3.13 µg/mL (≈ 5.53 µM) | ≤ 0.025 µg/mL |  |  |  |  |  | 
Nc1nc(/C(=N/OCF)C(=O)N[C@@H]2C(=O)N3C(C(=O)[O-])=C(/C=C/C[N+]45CCN(CC4)CC5)CS[C@H]23)ns1 [Example 129, 7β-[2-(5-Amino-1,2,4-thiadiazol-3-yl)-(Z)-2-fluoromethoxyiminoacetamido]-3-[(E)-3-(1,4-diazabicyclo[2,2,2]octan-1-io)-1-propen-1-yl]-3-cephem-4-carboxylate] | 0.05 µg/mL (≈ 0.0905 µM) | ≤ 0.025 µg/mL | 0.2 µg/mL (≈ 0.362 µM) | ≤ 0.025 µg/mL | 0.8 µg/mL (≈ 1.45 µM) | ≤ 0.025 µg/mL |  |  |  |  |  | 
CC(C)(CO)[N+](C)(C)C/C=C/C1=C(C(=O)[O-])N2C(=O)[C@@H](NC(=O)/C(=N\OCF)c3nsc(N)n3)[C@H]2SC1 [Example 69] | 0.05 µg/mL (≈ 0.0897 µM) | ≤ 0.025 µg/mL | 0.2 µg/mL (≈ 0.359 µM) | ≤ 0.025 µg/mL | 0.8 µg/mL (≈ 1.43 µM) | ≤ 0.025 µg/mL |  |  |  |  |  | 
CC(O)C[N+](C)(C)CC=CC1=C(C(=O)[O-])N2C(=O)C(NC(=O)C(=NOCF)c3nsc(N)n3)C2SC1 (centres unmarked) [Example 66] |  |  |  |  |  |  | ≤ 0.025 µg/mL | ≤ 0.025 µg/mL | 0.4 µg/mL (≈ 0.736 µM) | ≤ 0.025 µg/mL | 0.8 µg/mL (≈ 1.47 µM) | ≤ 0.025 µg/mL
C[C@@H](CO)[N+](C)(C)C/C=C/C1=C(C(=O)[O-])N2C(=O)[C@@H](NC(=O)/C(=N\OCC#N)c3nsc(N)n3)[C@H]2SC1 [Example 148] | 0.05 µg/mL (≈ 0.0908 µM) | 0.1 µg/mL (≈ 0.182 µM) | 0.4 µg/mL (≈ 0.726 µM) | 0.05 µg/mL (≈ 0.0908 µM) | 1.56 µg/mL (≈ 2.83 µM) |  |  |  |  |  |  | 
